PubChem BioAssay (NCI)
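Protocol summary: plate cells (96-well), add compound at 5 concentrations, incubate 48 h, interpolate endpoints linearly. Definition used: TGI = concentration required for complete inhibition of growth.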

system: SK-OV-3 ovarian; assay: NCI anticancer screen, dose series, 48 h

Question: How did the TGI turn out when `CC1=CCC(C(C)(C)NC(=O)c2ccccc2)C/C1=N/O` (stereo not given) was run?
Answer: > 100 µM

Question: `CCSC1=N/C(=C\c2ccco2)C(=O)N1` was tested. Which TGI did it give?
Answer: > 100 µM

Question: How did the TGI turn out when `COc1ccc(-c2nc(Nc3ccccc3)sc2Cc2sc(Nc3ccccc3)nc2-c2ccc(OC)cc2)cc1` was run?
Answer: > 100 µM

Question: How did the TGI turn out when `Cc1ccc(S(=O)(=O)N2CCNCCN(S(=O)(=O)c3ccc(C)cc3)CCNCC2)cc1` was run?
Answer: 41.1 µM

Question: With `COc1cc(C2c3cc4c(cc3C(=O)C3CCC(=O)N32)OCO4)cc(OC)c1O` (stereo not given) as the molecule, how does the TGI read?
Answer: > 50 µM

Question: Which TGI does the source give for `Cc1cn(C2CC(N=[N+]=[N-])C(COP(=O)(O)OCC3OC(n4cc(F)c(=O)[nH]c4=O)CC3O)O2)c(=O)[nH]c1=O` (stereo not given) here?
Answer: > 100 µM

system: SNB-19 CNS; assay: NCI anticancer screen, dose series, 48 h

Question: With `O=C(NCCNCCNC(=O)c1cc(-c2ccccc2)nc2ccccc12)c1cc(-c2ccccc2)nc2ccccc12` as the molecule, how does the TGI read?
Answer: 24.3 µM

Question: `COc1cc([C@@H]2c3cc4c(cc3[C@@H](Nc3ccc(Cl)cc3C(=O)c3ccccc3)[C@H]3COC(=O)[C@H]23)OCO4)cc(OC)c1OC` was tested. Which TGI did it give?
Answer: > 85.1 µM

Question: Which TGI does the source give for `Cc1cc(O)c(/C=N/C(=S)Nc2ccc(S(N)(=O)=O)cc2)c(=O)o1` here?
Answer: > 100 µM

Question: With `CCOC(=O)c1nc2ccc(C(F)(F)F)cc2nc1Nc1ccc(OC)cc1` as the molecule, how does the TGI read?
Answer: > 100 µM

Question: With `Cn1nnc2c3c(N(CCO)CCO)ccnc3ccc21` as the molecule, how does the TGI read?
Answer: > 100 µM

Question: For `COc1ccc(-c2nc(-c3cnccn3)n(C3OC(CO)C(O)C3O)n2)cc1` (stereo not given), which TGI is on record?
Answer: > 10 µM

Question: Which TGI does the source give for `Cc1ccc(S(=O)(=O)N2CCSCCSCCSCCN(S(=O)(=O)c3ccc(C)cc3)CC2)cc1` here?
Answer: > 100 µM

Question: `CC(=O)[C@H]1[C@H](O)C[C@@]2(C)[C@@H]3CCc4cc(O)c(OC5OC(CO)C(O)C(O)C5O)cc4C3(C)C(=O)C[C@]12C` (stereo not given in full) was tested. Which TGI did it give?
Answer: > 100 µM

Question: For `CC(C)(O)c1cc2c(cc1C(C)(C)O)-c1ccccc1-2`, which TGI is on record?
Answer: > 100 µM

Question: For `CCCc1nc2c(n1CC)C(=O)c1ccccc1C2=O`, which TGI is on record?
Answer: > 100 µM

Question: `CC(Oc1ccc(Cl)cc1Cl)C(=O)NN1C(=O)CC(=O)N(c2ccccc2)C1=S` (stereo not given) was tested. Which TGI did it give?
Answer: > 100 µM

Question: For `O=C(NCCN1CCCCC1)c1cccc(I)c1`, which TGI is on record?
Answer: > 100 µM

Question: `COC(=O)[C@@](NC(=O)OCc1ccccc1)([C@H](C)O)C(F)(F)F` was tested. Which TGI did it give?
Answer: > 100 µM

Question: With `CO/C(=N\N=C\c1ccc(Cl)c(Cl)c1)c1ccncc1` as the molecule, how does the TGI read?
Answer: > 10 µM

Question: For `CC(=O)/C(=C\I)c1ccccc1`, which TGI is on record?
Answer: 24.5 µM

Question: `CCOC(=O)c1c[nH]c(C(=O)C=[N+]=[N-])c1C1CCN(CC)C1=S` (stereo not given) was tested. Which TGI did it give?
Answer: > 100 µM

Question: Which TGI does the source give for `Cc1cc(NS(=O)(=O)c2ccc(N=[N+]([O-])c3ccc(S(=O)(=O)Nc4cc(C)on4)cc3)cc2)no1` here?
Answer: > 100 µM

Question: `COC(=O)/C=C(\C)CCC1SC1(C)C` (stereo not given) was tested. Which TGI did it give?
Answer: > 100 µM

Question: With `COC(=O)C(=O)C(C(=O)C(=O)Nc1ccc(C)cc1C)c1nc2ccc(Cl)cc2[nH]c1=O` (stereo not given) as the molecule, how does the TGI read?
Answer: > 100 µM

Question: For `Cc1ccc(S(=O)(=O)N/N=C2/CCC3(O)CC2(C)CCC2[C@H]3CC2(C)C)cc1` (stereo not given in full), which TGI is on record?
Answer: > 100 µM

Question: `CC1=CCC(C(C)(C)NC(=O)c2ccccc2)C/C1=N/O` (stereo not given) was tested. Which TGI did it give?
Answer: > 100 µM

Question: `CCSC1=N/C(=C\c2ccco2)C(=O)N1` was tested. Which TGI did it give?
Answer: > 100 µM

Question: For `COc1ccc(-c2nc(Nc3ccccc3)sc2Cc2sc(Nc3ccccc3)nc2-c2ccc(OC)cc2)cc1`, which TGI is on record?
Answer: > 100 µM

Question: Which TGI does the source give for `Cc1ccc(S(=O)(=O)N2CCNCCN(S(=O)(=O)c3ccc(C)cc3)CCNCC2)cc1` here?
Answer: > 100 µM

Question: `COc1cc(C2c3cc4c(cc3C(=O)C3CCC(=O)N32)OCO4)cc(OC)c1O` (stereo not given) was tested. Which TGI did it give?
Answer: > 50 µM

Question: How did the TGI turn out when `Cc1cn(C2CC(N=[N+]=[N-])C(COP(=O)(O)OCC3OC(n4cc(F)c(=O)[nH]c4=O)CC3O)O2)c(=O)[nH]c1=O` (stereo not given) was run?
Answer: > 31.6 µM

system: IGROV1 ovarian; assay: NCI anticancer screen, dose series, 48 h

Question: With `C=C1C(=O)O[C@H]2C1C[C@H](O)[C@@]1(C)OC1CC[C@@]1(C)O[C@H]21` (stereo not given in full) as the molecule, how does the TGI read?
Answer: 31 µM

Question: `O=C(NCCNCCNC(=O)c1cc(-c2ccccc2)nc2ccccc12)c1cc(-c2ccccc2)nc2ccccc12` was tested. Which TGI did it give?
Answer: 7.25 µM

Question: For `COc1cc([C@@H]2c3cc4c(cc3[C@@H](Nc3ccc(Cl)cc3C(=O)c3ccccc3)[C@H]3COC(=O)[C@H]23)OCO4)cc(OC)c1OC`, which TGI is on record?
Answer: 7.6 µM

Question: With `Cc1cc(O)c(/C=N/C(=S)Nc2ccc(S(N)(=O)=O)cc2)c(=O)o1` as the molecule, how does the TGI read?
Answer: > 100 µM

Question: How did the TGI turn out when `CCOC(=O)c1nc2ccc(C(F)(F)F)cc2nc1Nc1ccc(OC)cc1` was run?
Answer: > 100 µM

Question: How did the TGI turn out when `Cn1nnc2c3c(N(CCO)CCO)ccnc3ccc21` was run?
Answer: > 100 µM

Question: `Cc1ccc(S(=O)(=O)N2CCSCCSCCSCCN(S(=O)(=O)c3ccc(C)cc3)CC2)cc1` was tested. Which TGI did it give?
Answer: > 100 µM

Question: With `CC(=O)[C@H]1[C@H](O)C[C@@]2(C)[C@@H]3CCc4cc(O)c(OC5OC(CO)C(O)C(O)C5O)cc4C3(C)C(=O)C[C@]12C` (stereo not given in full) as the molecule, how does the TGI read?
Answer: > 100 µM

Question: For `CC(C)(O)c1cc2c(cc1C(C)(C)O)-c1ccccc1-2`, which TGI is on record?
Answer: > 100 µM

Question: Which TGI does the source give for `CCCc1nc2c(n1CC)C(=O)c1ccccc1C2=O` here?
Answer: > 100 µM

Question: How did the TGI turn out when `CC(Oc1ccc(Cl)cc1Cl)C(=O)NN1C(=O)CC(=O)N(c2ccccc2)C1=S` (stereo not given) was run?
Answer: > 100 µM

Question: For `O=C(NCCN1CCCCC1)c1cccc(I)c1`, which TGI is on record?
Answer: > 100 µM

Question: `COC(=O)[C@@](NC(=O)OCc1ccccc1)([C@H](C)O)C(F)(F)F` was tested. Which TGI did it give?
Answer: > 100 µM

Question: For `CO/C(=N\N=C\c1ccc(Cl)c(Cl)c1)c1ccncc1`, which TGI is on record?
Answer: > 10 µM

Question: How did the TGI turn out when `CC(=O)/C(=C\I)c1ccccc1` was run?
Answer: 4.25 µM

Question: Which TGI does the source give for `CCOC(=O)c1c[nH]c(C(=O)C=[N+]=[N-])c1C1CCN(CC)C1=S` (stereo not given) here?
Answer: > 100 µM

Question: `Cc1cc(NS(=O)(=O)c2ccc(N=[N+]([O-])c3ccc(S(=O)(=O)Nc4cc(C)on4)cc3)cc2)no1` was tested. Which TGI did it give?
Answer: > 100 µM

Question: For `COC(=O)/C=C(\C)CCC1SC1(C)C` (stereo not given), which TGI is on record?
Answer: > 100 µM

Question: With `COC(=O)C(=O)C(C(=O)C(=O)Nc1ccc(C)cc1C)c1nc2ccc(Cl)cc2[nH]c1=O` (stereo not given) as the molecule, how does the TGI read?
Answer: > 100 µM

Question: With `Cc1ccc(S(=O)(=O)N/N=C2/CCC3(O)CC2(C)CCC2[C@H]3CC2(C)C)cc1` (stereo not given in full) as the molecule, how does the TGI read?
Answer: 74.3 µM

Question: With `CC1=CCC(C(C)(C)NC(=O)c2ccccc2)C/C1=N/O` (stereo not given) as the molecule, how does the TGI read?
Answer: > 100 µM

Question: `CCSC1=N/C(=C\c2ccco2)C(=O)N1` was tested. Which TGI did it give?
Answer: > 100 µM

Question: For `COc1ccc(-c2nc(Nc3ccccc3)sc2Cc2sc(Nc3ccccc3)nc2-c2ccc(OC)cc2)cc1`, which TGI is on record?
Answer: > 100 µM
